Legend:
[1] = lyophilized powder reconstituted before administration; cited from earlier work
[2] = Stability of bortezomib with excipients in water, propyleneglycol (PG) or butylene glycol (BG) at 1 mg/mL, 50° C.; assay type: physicochemical; conditions: in the absence of N-Acetyl-L-methionine
Experimental: In Examples 1-3 below, Tables 1, 2 and 3 summarize the effectiveness of sulfur compounds in stabilizing bortezomib such as against oxidation and decomposition reactions. For each of the following Examples 1-3, the following procedures were used: Samples preparation: 100 mg of the API (active pharmaceutical ingredient) was suspended into 100 mL of water or other ratioed solvents, mixed well by using a vortex mixer and sonicator (with gentle warm if necessary) to make a 1 mg/mL of solution A. 10 mg of each excipient was weighed into avial, and 1 mL of solution A was added, mixed well to give the test solution B (10:1 of excipient/API). Took 100 μL of solution B and diluted into 1 mL with solution A to give the test solution C (1:1 of excipient/API). Took 100 μL of solution C and diluted into 1 mL with solution A to give the test solution D (0.1:1 of excipient/API). For solid powderform of Bortezomib with the excipients, method in US 2005/0282742 A1 was adopted. […]
Aqueous formulations of bortezomib together with a number of sulfur-containing compounds in varying weight ratios were evaluated for stability over time based on purity of Bortezomib in water, propyleneglycol (PG) or butylene glycol (BG) at 1 mg/mL, 50° C.

CC(C)C[C@H](NC(=O)[C@H](Cc1ccccc1)NC(=O)c1cnccn1)B(O)O [Bortezomib, reference compound]
time the reconstituted solution is sufficiently stable [1]: up to 8 hours
decomposition of bortezomib [2]: 67%
